Drawing on patent publication US10150780B2, “Spirocyclic heterocycle compounds useful as HIV integrase inhibitors” (Merck Sharp & Dohme Corp., priority 2014, dated 2018), this text covers IC50 for 15 compounds.

Each structure is given as a SMILES string. Like-named read-outs stand apart in the source and are kept apart here.

The assay relates to HIV-1 (NL4-3 strain). Put plainly: Assay for Inhibition of HIV Replication (VIKING), infected MT4-GFP cells. It counts as cell-based. The settings on record: infected cells at 48 h / 24 h. The method, then: MT4-GFP cells (250,000 cells/ml) were bulk-infected with HIV-1 (NL4-3 strain) at low multiplicity of infection (MOI) in RPMI+10% FBS for 24 hours. Cells were then washed once in RPMI+10% FBS and resuspended RPMI+0% or +100% normal human serum (NHS). Test compounds were serial-diluted in DMSO on ECHO. The infected MT4-GFP cells were added to a 384-well poly-D-lysine coated black plate with clear bottom in which the diluted test compounds were placed. The cells were seeded at 8,000 cells per well and the final DMSO concentration was 0.4%. The infected cells (Green GFP cells) were quantified at both 24 and 48 hours post incubation using Acumen eX3. Viral reproductive ratio (R0) was determined using the number of infected cells at 48 hours divided by the number of infected cells at 24 hours. Percent viral growth inhibition was calculated by [1−(R−Rtripledrug)/(RDMSO−Rtripledrug)]*100.

Setting [1] is: MT4-GFP cells infected with HIV-1 NL4-3, RPMI + 0% normal human serum, read-out: VIKING IP50 (nM) with 0% NHS.
[2] abbreviates: MT4-GFP cells infected with HIV-1 NL4-3, RPMI + 100% normal human serum, read-out: VIKING IP50 (nM) with 100% NHS.
The mark [3] stands for this setting: Human immunodeficiency virus 1, NL43, 48 h, MT4-GFP cells infected with HIV-1 NL4-3, RPMI + 0% normal human serum, read-out: VIKING IP50 (nM) with 0% NHS.
The mark [4] stands for this setting: Human immunodeficiency virus 1, NL43, MT4-GFP cells infected with HIV-1 NL4-3, RPMI + 100% normal human serum, read-out: VIKING IP50 (nM) with 100% NHS.

Regarding `O=C(NCc1cccc(Cl)c1F)c1cn2c(c(O)c1=O)C(=O)N1CCCOC1C21CC1` (single isomer, unassigned) [Compound 6], the IC50 came out at 0.6 nM under setting [1] and 505 nM under setting [2].
Take `O=C(NCc1cccc(Cl)c1F)c1cn2c(c(O)c1=O)C(=O)N1CCCOC1C21CC1` (single isomer, unassigned) [Compound 5]: the IC50 by setting is: under setting [3], 0.8 nM; under setting [2], greater than 8000 nM.
In the same order, the values of `CN1CCCN2C(=O)c3c(O)c(=O)c(C(=O)NCc4cccc(Cl)c4F)cn3C3(CC3)C12` (single isomer, unassigned) [Compound 14] are 1 nM and 2340 nM.
As for `O=C(NCc1cccc(Cl)c1F)c1cn2c(c(O)c1=O)C(=O)N1CCOC1C21CC1` (single isomer, unassigned) [Compound 11], the IC50 reads like this: under setting [1], 0.4 nM; under setting [2], greater than 8000 nM.
In the same order, the values of `O=C(NCc1cccc(Cl)c1F)c1cn2c(c(O)c1=O)C(=O)N1CCCCOC1C21CC1` (single isomer, unassigned) [Compound 12] are 0.5 nM and 92.3 nM.
Consider `O=C(NCc1ccc(F)cc1F)c1cn2c(c(O)c1=O)C(=O)N1CCCOC1C21CC1` (single isomer, unassigned) [Compound 3], for which the IC50 under setting [3] turned out to be 0.6 nM and the IC50 under setting [2] was 3370 nM.
Take `O=C(NCc1cccc(Cl)c1F)c1cn2c(c(O)c1=O)C(=O)N1CCCCOC1C21CC1` (single isomer, unassigned) [Compound 13]: the IC50 under setting [1] is 1.3 nM and the IC50 under setting [2] worked out at 4100 nM.
With `COC1N(N(C)C)C(=O)c2c(O)c(=O)c(C(=O)NCc3ccc(F)cc3F)cn2C12CC2` (single isomer, unassigned) [Compound 1], the IC50 is, setting by setting: under setting [3], 1.9 nM; under setting [2], greater than 8000 nM.
`COC1N(N(C)C)C(=O)c2c(O)c(=O)c(C(=O)NCc3ccc(F)cc3F)cn2C12CC2` (single isomer, unassigned) [Compound 2]: the IC50 was 1.7 nM under setting [1] and 153 nM under setting [2].
With `COC1N(N(C)C)C(=O)c2c(O)c(=O)c(C(=O)NCc3ccc(F)cc3F)cn2C12COC2` (stereo not drawn) [Compound 9], the IC50 by setting is: under setting [3], 7 nM; under setting [4], 235 nM.
In the case of `CN(C)N1CC2(COC2)n2cc(C(=O)NCc3ccc(F)cc3F)c(=O)c(O)c2C1=O` [Compound 7], the IC50 reads like this: under setting [3], 4 nM; under setting [4], 1280 nM.
For the compound `O=C(NCc1ccc(F)cc1F)c1cn2c(c(O)c1=O)C(=O)N1CCCOC1C21CC1` (single isomer, unassigned) [Compound 4], the IC50 worked out at 0.5 nM under setting [1] and 285 nM under setting [2].
For the compound `O=C(NCc1cccc(Cl)c1F)c1cn2c(c(O)c1=O)C(=O)N1CCOC1C21CC1` (single isomer, unassigned) [Compound 10], the IC50 came to 0.4 nM under setting [3] and 3900 nM under setting [2].
In the case of `CN(C)N1CC2(CCOCC2)n2cc(C(=O)NCc3ccc(F)cc3F)c(=O)c(O)c2C1=O` [Compound 8], the IC50 worked out at 19 nM under setting [3] and 1510 nM under setting [4].
Turning to `CN1CCCN2C(=O)c3c(O)c(=O)c(C(=O)NCc4cccc(Cl)c4F)cn3C3(CC3)C12` (single isomer, unassigned) [Compound 15], the IC50 runs as follows: under setting [1], 0.6 nM; under setting [2], 71.5 nM.
